In patent publication US20240408043A1, “COMPOSITIONS AND METHODS FOR USE IN INCREASING MOTIVATIONAL PERFORMANCE” (SOCIETE DES PRODUITS NESTLE S.A., priority 2021, published 2024):
“Also recorded” adds a separate entry of the source.

Key:
[1] = test system: GSH in the nucleus accumbens; test: GSH level in the nucleus accumbens after NAC in the drinking water; format: in vivo, rat; settings: adult male rats, NAC 500 mg/L in the drinking water for 2 weeks, FIG. 1B
Adult male Wistar rats = test: Progressive ratio test of motivated behaviour (operant conditioning, nose poke for saccharine pellets); format: in vivo, rat; settings: NAC 500 mg/L in the drinking water for 2 weeks, two-hour session
Method: Adult male outbred rats were trained for nose poke for saccharine food pellets for one week on an FR1 training schedule as described in the methods below. […] Following 2 weeks of treatment, rats were given an additional 2 training sessions, followed 24 h later by a progressive ratio session designed to test their motivated behaviour. During this progressive ratio session, rats have to increasingly work harder to earn the saccharine pellet, as described in the methods below. […] The breakpoint is defined as the last step in the session where the animals received a reward and is a direct correlate of their willingness to exert an effort. […] Animals: Adult male Wistar rats (Charles Rivers, Saint-German-Nuelle, France) weighing 250-275 gr at the beginning of the experiment were used for all experiments. Rats were individually housed in cages in housing colonies on a 12:12 h reversed light:dark cycle with lights on at 20:00, and lights-off at 8:00. Food and water were available adlibitum. Following a week of acclimatization to the animal facilities, rats were handled for 2 min per day for three days prior to the start of the experiments, in order to habituate to the experimenters. Operant conditioning: Ten days after introduction to the reversed day-night cycle, rats started training in a fixed ratio 1 reinforcement schedule (FR1). Operant chambers (Coulbourn Instruments, Holliston, MA, US), placed in sound attenuating cubicles, were equipped with a grid, underneath which a tray with standard bedding material was placed for collection of feces and urine after each training session. Each chamber had one food tray and two ports placed on either side of the tray. A cue light was placed in each port and the food tray, whereas a house light was placed above the food tray. […] Correct nosepokes (i.e. nosepokes in the active port and outside the timeout period, thus resulting in food delivery) were calculated to evaluate behavioural performance, as well as the number of acquired rewards and the last completed ratio (breakpoint).

CC(=O)N[C@@H](CS)C(=O)O [NAC, N-acetyl cysteine]
GSH in the nucleus accumbens compared to vehicle treated rats [1]: enhance GSH levels; also recorded: enhanced GSH | nose pokes for the reward (correct nosepokes) in progressive ratio session, compared to vehicle (Adult male Wistar rats; FIG. 1C): significantly more nose pokes | number of rewards earned in progressive ratio session, compared to vehicle (Adult male Wistar rats; FIG. 1D): greater number of rewards; also recorded: more overall rewards | breakpoint (last completed ratio) in progressive ratio session, compared to vehicle (Adult male Wistar rats; FIG. 1E): significantly higher breakpoint level
